From US5869489A, “Trypthophan ureas as neurokinnin antagonists” (Merck & Co., Inc., priority 1997, dated 1999)

Experiments:
human NK1R = molecular target: T1, human NK1R (Homo sapiens, UniProt P25103); assay: Binding assay of human NK1R expressed in COS or CHO cells, displacement of 125I-substance P (Table 1, hNK1); settings: human NK1 receptor, 125I-substance P ligand; read-out: hNK1 (IC50 nM)
T1 construct: expressed in transfected cells
Experimental: (§1) A. Receptor Expression in COS
(§2) To express the cloned human neurokinin-1 receptor (NK 1R) transiently in COS, the cDNA for the human NK 1R was cloned into the expression vector pCDM9 which was derived from pCDM 8 (INVITROGEN) by inserting the ampicillin resistance gene (nucleotide 1973 to 2964 from BLUESCRIPT SK+) into the Sac II site. Transfection of 20 μg of the plasmid DNA into 10 million COS cells was achieved by electroporation in 800 μl of transfection buffer (135 mM NaCl, 1.2 mM CaCl2, 1.2 mM MgCl2, 2.4 mM K2 HPO4, 0.6 mM KH2 PO4, 10 mM glucose, 10 mM HEPES pH 7.4) at 260 V and 950 uF using the IBI GENEZAPPER (IBI, New Haven, Conn.). The cells were incubated in 10% fetal calf serum, 2 mM glutamine, 100 U/ml penicillin-streptomycin, and 90% DMEM media (GIBCO, Grand Island, N.Y.) in 5% CO2 at 37° C. for three days before the binding assay. Similar methods were used to express the NK2 receptor.
(§3) B. Stable Expression in CHO
(§4) To establish a stable cell line expressing the cloned human NK1R, the cDNA was subcloned into the vector pRcCMV (INVITROGEN). Transfection of 20 μg of the plasmid DNA into CHO cells was achieved by electroporation in 800 μl of transfection buffer suplemented with 0.625 mg/ml Herring sperm DNA at 300 V and 950 uF using the IBI GENEZAPPER (IBI). The transfected cells were incubated in CHO media (10% fetal calf serum, 100 U/ml pennicilin-streptomycin, 2 mM glutamine, 1/500 hypoxanthine-thymidine(ATCC), 90% IMDM media (JRH BIOSCIENCES, Lenexa, Kans.), 0.7 mg/ml G418 (GIBCO)) in 5% CO2 at 37° C. until colonies were visible. Each colony was separated and propagated. The cell clone with the highest number of human NK1R was selected for subsequent applications such as drug screening. Similar methods were used to express the human NK2 receptor.
(§5) C. Assay Protocol using COS or CHO The binding assay of human NK1R expressed in either COS or CHO cells is based on the use of ^125 I-substance P (^125 I-SP, from DU PONT, Boston, Mass.) as a radioactively labeled ligand which competes with unlabeled substance P or any other ligand for binding to the human NK1R. […] In the binding assay, 500 μl of cells were added to a tube containing 20 μl of 1.5 to 0.25 nM of ^125 I-SP and 5 μl of unlabeled substance P or any other test compound in DMSO. The tubes were incubated at 4° C. or at room temperature for 1 hour with gentle shaking. The bound radioactivity was separated from unbound radioactivity by GF/C filter (BRANDEL, Gaithersburg, Md.) which was pre-wetted with 0.1% polyethylenimine. The filter was washed with 3 ml of wash buffer (50 mM Tris pH 7.5, 5 mM MnCl2, 150 mM NaCl) three times and its radioactivity was determined by gamma counter. A similar assay was used for NK2 except ^125 I-NKA was used as the ligand.

human NK2 receptor = molecular target: T2, human NK2 receptor (Homo sapiens, UniProt P21452); assay: Binding assay of NK2 receptor expressed in COS or CHO cells, displacement of 125I-NKA (Table 1, hNK2); settings: human NK2 receptor, 125I-NKA ligand; read-out: hNK2 (IC50 nM)
T2 construct: expressed in transfected cells
T2 sequence (P21452 1-398): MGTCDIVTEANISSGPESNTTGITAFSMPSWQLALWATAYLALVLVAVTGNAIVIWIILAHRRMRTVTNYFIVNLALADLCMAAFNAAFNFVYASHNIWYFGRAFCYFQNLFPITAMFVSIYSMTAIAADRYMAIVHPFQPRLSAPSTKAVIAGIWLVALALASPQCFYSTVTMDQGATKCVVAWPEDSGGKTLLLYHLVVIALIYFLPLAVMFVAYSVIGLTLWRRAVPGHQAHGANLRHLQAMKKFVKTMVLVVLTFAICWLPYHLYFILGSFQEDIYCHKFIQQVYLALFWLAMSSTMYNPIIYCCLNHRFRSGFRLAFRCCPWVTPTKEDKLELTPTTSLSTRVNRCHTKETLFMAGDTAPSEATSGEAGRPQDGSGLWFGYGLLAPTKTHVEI
Experimental: as §1, §2, §3, §4, §5

T1 sequence (P25103 whole entry): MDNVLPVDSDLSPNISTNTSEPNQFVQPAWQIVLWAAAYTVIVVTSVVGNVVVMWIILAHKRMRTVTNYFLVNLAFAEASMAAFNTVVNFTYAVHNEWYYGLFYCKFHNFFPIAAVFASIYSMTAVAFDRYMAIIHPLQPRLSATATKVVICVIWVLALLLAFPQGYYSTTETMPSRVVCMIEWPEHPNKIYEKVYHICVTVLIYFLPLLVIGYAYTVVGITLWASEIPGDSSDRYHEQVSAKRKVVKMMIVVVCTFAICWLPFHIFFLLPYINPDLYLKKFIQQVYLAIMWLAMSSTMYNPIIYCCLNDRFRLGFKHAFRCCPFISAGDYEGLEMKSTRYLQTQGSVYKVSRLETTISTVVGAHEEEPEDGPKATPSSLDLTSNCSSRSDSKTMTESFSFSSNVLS

Compound	IC50 (human NK1R)	IC50 (human NK2 receptor)
CN(Cc1cc(Cl)cc(Cl)c1)C(=O)[C@H](Cc1c[nH]c2ccccc12)NC(=O)N1CCC2(CC1)CN(S(C)(=O)=O)c1ccccc12 [Example 27, N-(3,5-Dichlorophenyl)methyl-N-methyl-2-(S)-((1-methanesulfonyl-spiroindoline-3,4'-piperidino)-carbonyl-amino)-3-(3-indolyl)propionamide]	1 nM	180 nM
CN(Cc1ccccc1)C(=O)[C@@H](Cc1c[nH]c2ccccc12)NC(=O)N1CCC(c2ccccc2)CC1 [Example 33]	750 nM	250 nM
CN(Cc1ccccc1)C(=O)[C@H](COCc1ccccc1)NC(=O)N1CCC2(CC1)CN(S(C)(=O)=O)c1ccccc12 [Example 35, N-Benzyl-N-methyl-2-(S)-((1-methanesulfonyl-spiroindoline-1,4'-piperidino)-carbonyl-amino)-3-benzyloxypropionamide]	300 nM	60 nM
CN(Cc1ccccc1)C(=O)[C@@H](NC(=O)N1CCC2(C=Cc3ccccc32)CC1)c1ccccc1 [Example 37, N-Benzyl-N-methyl-2-(S)-((spiroindine-1,4'-piperidino)-carbonyl-amino)-2-phenylacetamide]	575 nM	200 nM
N-(1(R)-Phenylpropyl)-N-methyl-2(S)-((spiroindane-1,4'-piperidino)-carbonyl-amino)-3-(3-indolyl)propionamide [Example 24]	1000 nM	50 nM
N-(1(S)-Phenylpropyl)-N-methyl-2(S)-((spiroindane-1,4'-piperidino)-carbonyl-amino)-3-(3-indolyl)propionamide [Example 23]	650 nM	30 nM
N-(1(S)-phenyl)ethyl-N-methyl-2-(S)-((1-methanesulfonyl-spiroindoline-3,4'- piperidino)-carbonyl-amino)-3-(3-indolyl)propionamide [Example 30]	10 nM	70 nM

More lines, in order of falling IC50 (human NK1R), values ahead:

IC50 (human NK1R)	IC50 (human NK2 receptor)	Compound
600 nM	130 nM	CN(Cc1ccccc1)C(=O)[C@@H](Cc1c[nH]c2ccccc12)NC(=O)N1CCC2(C=Cc3ccccc32)CC1 [Example 31, N-Benzyl-N-methyl-2-(R)-((spiro-1H-indene-1,4'-piperidino)-carbonyl-amino)-3-(3-indolyl)propionamide]
400 nM	60 nM	CN(Cc1ccccc1)C(=O)[C@H](CCc1ccccc1)NC(=O)N1CCC2(CC1)CN(S(C)(=O)=O)c1ccccc12 [Example 34, N-Benzyl-N-methyl-2-(S)-((1-methanesulfonyl-spiroindoline-3,4'-piperidino)-carbonyl-amino)-4-phenylbutyramide]
300 nM	200 nM	CN(Cc1ccccc1)C(=O)[C@H](Cc1ccccc1)NC(=O)N1CCC2(C=Cc3ccccc32)CC1 [Example 36, N-Benzyl-N-methyl-2-(S)-((spiroindine-1,4'-piperidino)-carbonyl-amino)-3-phenylpropionamide]
200 nM	180 nM	CN(Cc1ccccc1)C(=O)[C@@H](Cc1c[nH]c2ccccc12)NC(=O)N1CCC2(CC1)CN(S(C)(=O)=O)c1ccccc12 [Example 32, N-Benzyl-N-methyl-2-(R)-((1-methanesulfonyl-spiroindoline-3,4'-piperidino)-carbonyl-amino)-3-(3-indolyl)propionamide]
7.5 nM	127 nM	CN(Cc1cccc(C(F)(F)F)c1)C(=O)[C@H](Cc1c[nH]c2ccccc12)NC(=O)N1CCC2(CC1)CN(S(C)(=O)=O)c1ccccc12 [Example 26, N-(3-Trifluoromethylphenyl)methyl-N-methyl-2-(S)-((1-methanesulfonyl-spiroindoline-3,4'-piperidino)-carbonyl-amino)-3-(3-indolyl)propionamide]
3 nM	> 300 nM	Cc1cc(C)cc(CN(C)C(=O)[C@H](Cc2c[nH]c3ccccc23)NC(=O)N2CCC3(CC2)CN(S(C)(=O)=O)c2ccccc23)c1 [Example 28, N-(3,5-Dimethylphenyl)methyl-N-methyl-2-(S)-((1-methanesulfonyl-spiroindoline-3,4'-piperidino)-carbonyl-amino)-3-(3-indolyl)propionamide]
2 nM	500 nM	Cc1cc(Cl)cc(CN(C)C(=O)[C@H](Cc2c[nH]c3ccccc23)NC(=O)N2CCC3(CC2)CN(S(C)(=O)=O)c2ccccc23)c1 [Example 29, N-((3-Chloro-5-methyl)phenyl)methyl-N-methyl-2-(S)-((1-methanesulfonyl-Spiroindoline-3,4'-piperidino)-carbonyl-amino)-3-(3-indolyl)propionamide]
